The text below walks through data of patent US9308182B2 (TEVA PHARMACEUTICAL INDUSTRIES, LTD., priority 2012, dated 2016).

Structures are written as SMILES. Where two headings read alike, the source gives them in different places.

For the series the following is noted: rats. The source says:
ALZET® osmotic minipumps are described in Perkins L, Peer C, and Murphy-Hackley P. “Chapter 21: The use of mini-osmotic pumps in continuous infusion studies” in Handbook of Pre-Clinical Continuous Intravenous Infusion, (Smith & Healing, eds., Taylor and Francis, 2000), the contents of which are incorporated herein by reference.
ALZET® pumps groups were weighed on the first and last day of the study. The oral administered groups were weighed on the first day and also on day 6 and 13 of the study.

In the case of `C#CCN[C@@H]1CCc2ccccc21` [rasagiline, R(+)-N-propargyl-l-aminoindan], the weight gain is listed as 1.3% (0.8 mg/kg/day delivered by ALZET pumps, first to last day of two-week study); 6-9% (all oral and ALZET pump groups except 0.8 mg/kg/day by ALZET pumps).
